The record followed here is patent publication US20140193383A1, “USE OF LACTOBACILLUS KEFIRANOFACIENS AS A PROBIOTIC AND A SYNBIOTIC” (Technologies Biolactis Inc., priority 2005, published 2014).

Experiment [1] concerns systolic blood pressure of SHR rats. Description: Anti-hypertensive potential in SHR rats (tail-cuff SBP). The experiment is classed as in vivo, SHR female rats. The method, then: Anti-hypertensive potential of whey fermented with […] (MPM) was evaluated by using SHR female rats (6 weeks old). 12 rats were randomized according to their weight in each treatment group. They were housed under specific pathogen-free conditions and maintained in a 12 hour-light/dark cycle. All animals consumed standard diet and received water ad libitum. Groups were forced-fed daily either 1 mL of water (placebo group), MPM (5 mL/kg) or Enalapril-malate (10 mg/kg), because of its well-known hypotensive effects. Systolic blood pressure (SBP) was measured weekly by the tail-cuff method with the automated RTBP2000 Tail Blood Pressure system (Kent Scientific, Torrington, Conn., USA). Data collections were made weekly and an average of 3 measurements was taken as initial mean SBP. Data was acquired and analysed with Biopac Student Lab Pro® software version 3.6.1 (Biopac System, Goleta, Calif., USA). […] A steady decrease of the SBP was observed every week with a maximum change of at least 25% at week 4 for the animals forced-fed with MPM.

The test system of experiment [2] is oxazolone-induced atopic contact dermatitis. Kind of experiment: Atopic contact dermatitis, prophylactic protocol (MPM). It is filed as in vivo, CD-1 mice. The note with it: Protection against atopic contact dermatitis (day 9); Controls 0.45. An excerpt: (§1) A murine model of atopic contact dermatitis induced with oxazolone in mice was used to determine the anti-inflammatory effect of the whey fermented with Lactobacillus kefiranofaciens […]. This model of inflammation has proven to be a sensitive and useful tool to determine efficacy and potency of several anti-inflammatory and immunosuppressive drugs used in dermatological disorders like psoriasis for example. Drugs like glucocorticoids are commonly used to relieve skin and joint inflammation. Whey fermented with […] administered orally either in a prophylactic (Table 24) or therapeutic fashion (Table 23) reduced the inflammation as shown with a reduction of around 30% of ear and thickness in both cases. […] The ear thickness of the mice was measured every day. The prophylactic anti-inflammatory potential of MPM (patent PCT/CA2002/01988) was evaluated firstly by the administration of MPM, 7 days prior to sensitization. […] Dermatitis was induced as described previously and ear thickness was measured every day. The therapeutic anti-inflammatory potential of MPM was evaluated by the administration of MPM only after the first challenge. […] The mouse atopic contact dermatitis was done as described previously and ear thickness was measured every day. The mice's weight was measured twice a week.

The test system is the same in experiment [3]. Description: Atopic contact dermatitis, therapeutic protocol (MPM). It is filed as in vivo, CD-1 mice. The note with it: Treatment of atopic contact dermatitis (day 17); Controls 0.55.
Description: as §1

For experiment [4] the test system is unchanged. Kind of experiment: Atopic contact dermatitis, therapeutic protocol (R2C2). It is filed as in vivo, mice. An excerpt:
A murine model of atopic contact dermatitis induced with oxazolone in mice was used to determine the anti-inflammatory effect of the whey fermented with Lactobacillus kefiranofaciens […]. This model of inflammation has proven to be a sensitive and useful tool to determine efficacy and potency of several anti-inflammatory and immunosuppressive drugs used in dermatological disorders like psoriasis for example. Drugs like glucocorticoids are commonly used to relieve skin and joint inflammation. Whey fermented with […] administered orally either in a prophylactic (Table 24) or therapeutic fashion (Table 23) reduced the inflammation as shown with a reduction of around 30% of ear and thickness in both cases. In more details, the murine model of atopic contact dermatitis was based on those firstly described by Garrigue et al. (Contact Dermatitis., 30(4):[…], 1994) and modified as follows: the CD-1 mice's abdomen were removed of hair and the sensitization phase was done with the application of 100 microliters of oxazolone 5% in acetone on the abdomen (Sigma-Aldrich, Oakville, On). After 4 days, the elicitation phase (first challenge) was done with application of 50 microliters of oxazolone 5% in acetone on the right ear (25 microliters each side of the ear). The second challenge was done 7 days after the first challenge with the same procedure. The ear thickness of the mice was measured every day. The therapeutic anti-inflammatory potential of […] was evaluated in an animal model of atopic contact dermatitis by feeding the bacterial suspension after the first challenge. The protective effect of […] was compared to that of hydrocortisone, because of its well-known anti-inflammatory effects on dermatitis.

Experiment [5] has as its system DSS-induced intestinal inflammation. Description: Effect of live, pasteurized or irradiated bacteria on DSS intestinal inflammation. The experiment is classed as in vivo, C57BL/6 mice. The method, then: C57BL/6 mice were treated by gavage (p.o.) with 10^8 cfu/ml of different L. kefiranofaciens strains once per day for the duration of the experiment. Animals received the strains R2C2 or BioSP as live, pasteurized or irradiated bacteria. Intestinal inflammation was induced by the addition of DSS (2.5%) to the drinking water for 8 days and then replaced with fresh water for 8 days to evaluate the rapidity of recovery process from inflammation for the different treatment groups. The level and progression of inflammation was evaluated through measurements of weight variation and combined scores of diarrhea and occult blood. Colon length and myeloperoxidase (MPO) activity in the colon were also evaluated at the end of the experiment.

Take `CCOC(=O)[C@H](CCc1ccccc1)N[C@@H](C)C(=O)N1CCC[C@H]1C(=O)O` [Enalapril, Enalapril-malate]: the “Systolic blood pressure (mm Hg)” value in experiment [1] (Week 0, Controls 185) was determined as 184 mm Hg; in experiment [1] (Week 1, Controls 181) it was 165 mm Hg; in experiment [1] (Week 2, Controls 184), 156 mm Hg; in experiment [1] (Week 3, Controls 183), 154 mm Hg; in experiment [1] (Week 4, Controls 187), 154 mm Hg.

`C[C@]12CCC(=O)C=C1CC[C@@H]1[C@@H]2[C@@H](O)C[C@@]2(C)[C@H]1CC[C@]2(O)C(=O)CO` [Hydrocortisone, hydrocortisone]: the “Ear thickness (mm)” value was 0.30 mm in experiment [2] and 0.29 mm in experiment [3]. Further, the “ear thickness (mm)” value in experiment [4] (Day 15, Controls 0.26) came out at 0.18 mm; in experiment [4] (Day 17, Controls 0.39), 0.27 mm; in experiment [4] (Day 22, Controls 0.34) it was 0.15 mm.

For `Nc1ccc(O)c(C(=O)O)c1` [5-ASA], the “Weight loss (%) associated with 8 days of DSS exposure” value was −3.21% in experiment [5] (Day 5, DSS+saline −1.83); −3.64% in experiment [5] (Day 6, DSS+saline −5.23); −5.90% in experiment [5] (Day 7, DSS+saline −8.79); −8.07% in experiment [5] (Day 8, DSS+saline −13.5). Further, the “Combined occult blood and diarrhea scores (scale of 8)” value in experiment [5] (Day 5 of DSS, DSS+saline 2.25) worked out at 1.75; in experiment [5] (Day 6 of DSS, DSS+saline 4.50), 3.75; in experiment [5] (Day 7 of DSS, DSS+saline 6.50) it was 4.25; in experiment [5] (Day 8 of DSS, DSS+saline 6.50), 5.50. For the same molecule, the “MPO activity (U/g of tissue)” value in experiment [5] (colon, post-mortem, 8 days DSS and 8 days of recovery, no DSS 0.056, DSS+saline 0.226) is listed as 0.043 U/g of tissue. In experiment [5] (live, pasteurized or irradiated bacteria, 5-ASA comparator), the “Protective effect on DSS inflammation” value is “comparable protective effects”.
